From paper PMC11342128, “Gold(I) and gold(III) carbene complexes from the marine betaine norzooanemonin: inhibition of thioredoxin reductase, antiproliferative and antimicrobial activity” (RSC Medicinal Chemistry, 2024)

Columns and labels:
Format in all cases: cell-based
[1] = system: methicillin-resistant Staphylococcus aureus DSM 11822; test: Antibacterial activity (MIC, curve fitting); details: Table S12; ± standard error of the mean
Description: (§1) The antibacterial activity of all gold complexes was assessed against six pathogenic bacterial strains, including two Gram-positive species, i.e. Enterococcus faecium and methicillin-resistant Staphylococcus aureus (MRSA), and four Gram-negative species, i.e. Acinetobacter baumannii, Escherichia coli, Klebsiella pneumoniae, and Pseudomonas aeruginosa. Minimum inhibitory concentrations (MICs) were determined using a curve-fitting technique.
(§2) S2.1. Antibacterial Studies
(§3) Bacterial cultures were prepared by overnight aerobic incubation at 37 °C. Gram-negative strains were cultivated in Müller Hinton broth supplemented with 1% glucose at pH 7.2, while Gram-positive strains were grown in Trypticase soy yeast extract medium (TSY) with a composition of 30 g/l trypticase soy broth, 3 g/l yeast extract, and pH 7.2. The cultures were adjusted to an OD600 of 0.001, resulting in a final starting OD600 of 0.0005 for the subsequent tests. For testing, 25 μL of the prepared culture was combined with 25 μL of serially diluted test compounds in 384 well plates, following established protocols for different strains. Screening was performed at compound concentrations of 0.5, 5, and 50 µM, and for selected compounds, growth inhibition curves were recorded using DMSO stock solutions […]
(§4) Positive control compounds, namely linezolid (for MRSA strains), ciprofloxacin (for E. faecium and E. coli), and amikacin (for P. aeruginosa), were included. The maximum DMSO concentration in the assay […]
(§5) After an 18-hour incubation at 37 °C under moist conditions, the optical density at 600 nm was measured using a Fusion Universal Microplate Analyser (Perkin–Elmer, Waltham, USA). The minimum inhibitory concentration (MIC) values, representing the […]
(§6) fitting with Sigma Plot. The bacterial strains used included Gram-negative strains: Escherichia coli (DSM 1116), A. baumannii (DSM30007), K. pneumoniae (DSM111678), and Pseudomonas aeruginosa PA7 (DSM 24068); and Gram-positive strains: E. faecium (DSM20477) and Staphylococcus aureus MRSA

[2] = system: Acinetobacter baumannii DSM30007; test: Antibacterial activity (MIC, curve fitting); details: Table S12; ± standard error of the mean
Description: as §1, §2, §3, §4, §5, §6

[3] = system: Pseudomonas aeruginosa DSM 24068; test: Antibacterial activity (MIC, curve fitting); details: Table S12; ± standard error of the mean
Description: as §1, §2, §3, §4, §5, §6

[4] = system: Enterococcus faecium DSM20477; test: Antibacterial activity (MIC, curve fitting); details: Table S12; ± standard error of the mean
Description: as §1, §2, §3, §4, §5, §6

[5] = system: Escherichia coli DSM 1116; test: Antibacterial activity (MIC, curve fitting); details: Table S12; ± standard error of the mean
Description: as §1, §2, §3, §4, §5, §6

[6] = system: Klebsiella pneumoniae DSM111678; test: Antibacterial activity (MIC, curve fitting); details: Table S12; ± standard error of the mean
Description: as §1, §2, §3, §4, §5, §6

[7] = system: A549 cells; test: Gold cellular uptake, HRCS-AAS; details: 2 μM, Fig. 5
Description: The amount of potential drug accumulated in the cell is often described as one of the critical factors for further biological effect. The significant difference in antiproliferative effect observed for dicarbene complexes 5a–c may be directly related to the amount of gold ions taken up by the treated cells. The cellular accumulation of these complexes was evaluated in the most sensitive cancer cell line A549. […] The gold content was further quantified using high-resolution continuum source atomic absorption spectroscopy (HRCS-AAS).
S2.4. Cellular uptake and metal quantification studies in A549 cells
Cellular uptake studies in A549 cells
For cellular accumulation studies, A549 lung carcinoma cells were seeded in 75 cm2 cell culture flasks, incubated with 10 ml DMEM/10% FCS cell culture medium at 37 °C in a 5% CO2 humidified atmosphere until they reached a confluence of 75-80%. The cells were treated with DMEM containing selected test compounds 3a and 3c dissolved in DMF (final DMF concentration: 0.1%; final test compound concentration: 2 μM). After 6 and 24 h of exposure, cells were isolated by removing the media followed by trypsinization. The trypsinized cells were washed with 9 ml PBS buffer (pH 7.4), scraped, and isolated by centrifugation (5 min, 3500 rpm). The obtained cell pellets were stored at -20 °C for further use. All experiments were carried out in triplicate.
Metal quantification in cell lysates by HRCS-AAS
Dry cell pellets were diluted with 400 μl of Milli-Q® water and lysed for 30 min in an ultrasonic bath (240 W, […]). For protein quantification. 20 μl of each sample was added to 200 μl of Bradford reagent (25 mg Serva Blue G (Sigma Aldrich) in 25 ml Ethanol 96%, 25 ml Milli-Q® water and 50 ml H3PO4 86%, stored at -20 °C and freshly diluted 1+4 with Milli-Q® water prior to use) and incubated on a 96-well plate while shaking at room temperature for 30 min and measured by a Perkin Elmer Victor X4 plate reader at a wavelength of 595 nm. The measurements were performed in duplicate, and the mean was used to calculate the protein content. For a standard calibration curve, bovine serum albumin (Sigma Aldrich) was used in graded concentrations.
The gold quantification was performed using a high-resolution continuum source atomic absorption spectrometer ContrAA® 700 (Analytik Jena AG). A pure sample of the respective complex 5c was used as standard, and calibration was done in a matrix-matched manner (meaning all samples and standards were adjusted to a protein concentration of 1 mg/ml by dilution with Milli-Q® water). The calibration and samples were measured in duplicate. The final cellular gold concentrations were calculated from data obtained in three independent experiments and are expressed as pmol of metal per mg of cell protein. Sample preparation: Triton-X 100 (1%, 20 μl) and ascorbic acid (1%, 20 μl) were added to each calibration standard or probe (200 μl). A volume of 20 μl was injected into a coated standard graphite tube (Analytik Jena AG) and thermally processed as previously described.[10] The gold amount was analyzed at a wavelength of 242.79 nm.

SMILES | MIC, MRSA [1] [µM] | MIC, A. baumannii [2] [µM] | MIC, P. aeruginosa [3] [µM] | MIC, E. faecium [4] [µM] | MIC, E. coli [5] [µM] | MIC, K. pneumoniae [6] [µM] | Gold uptake (cellular gold content) ([7]; 6 h, 37 °C) | Gold uptake (cellular gold content) ([7]; 24 h compared with 6 h)
CCOC(=O)c1cn(C)[c]([Au-]([Cl])([Cl])[c]2n(C)cc(C(=O)OCC)[n+]2C)[n+]1C.F[B-](F)(F)F [5c] | 23.15 ± 0 | > 100 | > 100 | > 100 | > 100 | > 100 | higher degree of gold uptake | decreased significantly
Cn1cc(C(=O)O)[n+](C)[c]1[Au-]([Cl])([Cl])[c]1n(C)cc(C(=O)O)[n+]1C.[Cl-] [5a] | > 100 | > 100 | > 100 | > 100 | > 100 | > 100 | low gold uptake | –
COC(=O)c1cn(C)[c]([Au-]([Cl])([Cl])[c]2n(C)cc(C(=O)OC)[n+]2C)[n+]1C.O=S(=O)([O-])C(F)(F)F [5b] | > 100 | > 100 | > 100 | > 100 | > 100 | > 100 | higher degree of gold uptake | decreased significantly
